One compound from US20080262080A1, “Allergy Suppressive Agent” (KYUSHU UNIVERSITY, NATIONAL UNIVERSITY CORPORATION, priority 2004, published 2008) can be followed below.

The test system of one experiment is blood cytokine levels. The experiment is described as follows: Blood cytokine levels of OVA-sensitized mice after chrysin intake (Mouse Cytokine Array). It counts as in vivo. An excerpt: Blood was collected as in Example 6 and 32 kinds of cytokines (6 Ckine, CTACK, Eotaxin, G-CSF, GM-CSF, IL-2, IL-3, Il-4, IL-5, Il-6, IL-9, IL-10, IL-12, IL-12p70, IL-13, IL-17, IFN-γ, KC, Leptin, MCP-1, MCP-5, MIP-1α, MIP-2, MIP-3β, RANTES, SCF, sTNFRI, TARC, TIMP-1, TNF-α, Tpo and VEGF) were detected using Ray Bio™ Mouse Cytokine Array (Ray Biotech, Inc.).

The test system of experiment [1] is blood antibody level (IgM, IgG, IgA, IgE). Briefly: Blood antibody level of mice antigen-sensitized with ovalbumin (OVA) after chrysin intake (ELISA). It counts as in vivo, mouse. The method, then:
Male BALB/c mice aged 8 weeks were divided into an AIN-93M-fed group (a control group) and a chrysin-comprising AIN-93M-fed group. After feeding with the individual feeds for 3 weeks, both groups were fed with the AIN-93M feed for 2 weeks. Each feed was given at a ratio of 5 g/day/animal while the animals were allowed to take water ad libitum. OVA-sensitization was conducted by injecting 100 μg of OVA/aluminum hydroxide gel into the peritoneal cavity of each mouse 1 and 2 weeks after the initiation of the feed, i.e., twice in total. On day 35, blood samples were collected and the total IgM, IgG and IgE levels in the serum were measured by ELISA. Reagents employed in ELISA for quantifying the antibody were as follows. In blocking, use was made of PBS comprising 1% of bovine serum albumin (Roche) (BSA-PBS). As solid phase antibodies, use was made of F(ab′)2 goat anti-mouse IgG antibody (Zymed Laboratories, Inc.), F(ab′)2 rabbit anti-mouse IgM antibody (Zymed Laboratories, Inc.) and rabbit anti-mouse IgA (Zymed Laboratories, Inc.). As secondary antibodies, use was made of HRP-labeled F(ab′)2 goat anti-mouse IgG(H(L) antibody (Zymed Laboratories, Inc.), HRP-labeled rabbit anti-mouse IgM antibody (Zymed Laboratories, Inc.) and HRP-labeled goat anti-mouse IgA antibody (Zymed Laboratories, Inc.). 2,2′-Anizo-bis(3-ethylbenzothiazoline-6-sulfonic acid) diammonium salt (ABTS) employed as a color development substrate was purchased from Wako Pure Chemical Industries, while oxalic acid was purchased from Nacalai tesque (Kyoto, Japan). A solid phase antibody solution (diluted 1000-fold with a 50 mM carbonate buffer) was pipetted into an immunoplate at a ratio of 100 μL/well and allowed to stand overnight at 4° C. After washing thrice with PBS comprising 0.1% of polyoxyethylene sorbitan monolaurate (Nacalai tesque) (TPBS), 300 μL/well of BSA-PBS was pipetted and incubation was conducted for 2 hours at 37° C. After washing thrice with TPBS, a sample and a standard solution, which were optionally diluted with BSA-PBS, were added at a ratio of 50 μL/well and allowed to stand overnight at 4° C. After washing thrice with TPBS, 100 μL/well of a secondary antibody solution (diluted 2000-fold with BSA-PBS) was pipetted and incubation was conducted for 1 hour at 37° C. After washing thrice with TPBS, 100 μL/well of a color development substrate solution was pipetted and color development was carried out. Then, 100 μL/well of oxalic acid was pipetted to cease the reaction and the absorbance was measured at 415 to 490 nm. As the color development substrate solution, a mixture of a 0.006% H2O2— comprising 0.2 M citrate buffer (pH 4.0), deionized water and a 10.94 mM ABTS solution (10:9:1) was employed. In the case of IgE, the procedure indicated in the protocol attached to a mouse IgE assay kit (Morinaga Biochemistry Lab.) was followed. Absorbance was measured using Immuno Mini NJ-2300 (Nippon Intermed).
A general note: An ELISA detects its analyte on a solid surface through an enzyme-linked reagent.

A further experiment concerns STAT6. The experiment is described as follows: Chrysin intake test: STAT6 phosphorylation in spleen lymphocytes of orally dosed mice. It counts as in vivo, mouse. The protocol: Spleen lymphocytes collected from mice, to which chrysin had been orally administered continuously, were stimulated with LPS or LPS+IL-4 (500 U/ml) and phosphorylated STAT6 was detected by immunoprecipitation using anti-STAT6 antibody and immunoblotting. 200 μL portions of 0.4 mg/mL chrysin and 200 μL portions of 1% DMSO in 1% EtOH were administered respectively to groups (n=8) in accordance with the following administration schedule. To male C57BL/6N mice aged 5 weeks that had been preliminarily fed (MF feed) for 1 week, the samples were administered once every 2 days for 2 weeks (7 times in total; total dose: 0.56 mg (28 mg/kg) per animal). After sacrificing, spleen lymphocytes were collected from the spleen of each mouse, adjusted to a density of 2×10^7 cells/mL and stimulated with 25 μg/mL of lipopolysaccharide (LPS) or LPS+IL-4 (500 U/mL) for 30 min. Then, the cells were lysed and phosphorylated STAT6 was detected by immunoprecipitation with the use of anti-STAT6 antibody and immunoblotting to thereby examine the response to IL-4.

Experiment [2] relates to FcεRI α- and γ-chains mRNA. The experiment is described as follows: FcεRI mRNA expression in human peripheral blood basophils (RT-PCR). It counts as cell-based. As to conditions: 25 µM of chrysin, 24 hours, vs DMSO. The protocol:
Peripheral blood basophils (1×10^6 cells/mL) collected from the vein of a donor were incubated in a medium comprising 25 µM of chrysin or dimethyl sulfoxide (DMSO) for 24 hours. Then, RNA was extracted and the mRNA expression level of each of the FcεRI α- and γ-chains was examined by the RT-PCR method. Venous blood was collected from the forearm elbow of a donor. Then, peripheral blood lymphocytes were separated and purified using Lymphocyte Separation Medium (ICN Biomedical Inc.) and peripheral basophils were separated and purified by the density gradient centrifugation method using Percoll (Amersham Biosciences). The basophils (1×10^6 cells/mL) were incubated in 5% FCS-RPMI 1640 medium, to which 25 µM of chrysin or a solvent dimethylsulfoxide (DMSO) had been added, for 24 hours. RNA was extracted and the mRNA expression levels of FcεRI α- and γ-chains were examined by the RT-PCR method as in Example 1.

Where [3] appears, read: serum, day 35, BALB/c mice OVA-sensitized, chrysin-comprising feed 3 weeks.

Bounds are passed on as bounds.

In the case of `O=c1cc(-c2ccccc2)oc2cc(O)cc(O)c12` [Chrysin, 5,7-dihydroxyflavone], in the experiment with blood cytokine levels (in words), the “IL-4 level after taking chrysin” value is given as “lower than the detection limit”; the “blood levels of G-CSF, GM-CSF, leptin and TNF-α” value is reported as “tendency toward increase”; the “cytokine levels of 26 of the 32 kinds of cytokines” value was “no change”. Further, in the experiment on blood cytokine levels (non-intake group = 1), the “G-CSF blood level, relative value” came to 2.43; the “GM-CSF blood level, relative value” was 1.68; the “IL-4 blood level, relative value” is given as 0; the “Leptin blood level, relative value” is given as 1.25. In the experiment on blood cytokine levels (non-intake group = 1), the “MCP-1 blood level, relative value” was determined as 0.49 and the “TNF-α blood level, relative value” amounted to 2.17. Moreover, the “blood IgE level compared with the control group” value in experiment [1] (OVA-sensitized mice, in words) is reported as “significantly lowered”. Further, in experiment [1] (OVA-sensitized mice, in words, vs control group), the “effect of chrysin intake on blood IgM, IgG and IgA levels” value is reported as “no effect”. Further, in experiment [1] (setting [3]), the IgA is on record as 0.6 ± 0.0 mg/mL, the IgG was found to be 23.5 ± 3.0 mg/mL and the IgM came to 5.4 ± 0.2 mg/mL. In addition, in the experiment with STAT6 (C57BL/6N mice, oral chrysin once every 2 days for 2 weeks, total 28 mg/kg, spleen lymphocytes, LPS+IL-4 (500 U/mL) 30 min, vs control system), the “phosphorylation of STAT6 by the stimulus with LPS+IL-4” value is given as “suppressed”. In addition, in the experiment with STAT6 (male adults having an average body weight of 60 kg (28 mg/kg)), the “oral dose at which chrysin is efficacious as an antiallergic agent” value is on record as at least 1.68 g/day. Besides, in experiment [2], the “FcεRI α-chain mRNA expression level” value is “strongly lowered” and the “FcεRI γ-chain mRNA expression level” value is on record as “lowered”.
